Data from US11230579B2, “Method of treating BCL-2 over-expressing disorders using arts containing a BH3-like domain” (CARMEL-HAIFA UNIVERSITY ECONOMIC CORPORATION LTD., priority 2012, dated 2022).
Like-named read-outs stand apart in the source and are kept apart here. Residues, ends and D or L forms follow the SMILES beside them. *: point of attachment. Cbz = O=C(OCc1ccccc1)*

Assays:
[1] = test system: Bcl-2; conditions: different cell lines and mouse embryonic fibroblasts (MEFs), Western blot
[2] = test system: Bcl-2; experiment: Over-expression of ARTS in COS-7 cells, Bcl-2 levels by Western blot and densitometry; format: cell-based; conditions: COS-7 cells transfected with Bcl-2 or Bcl-2 and ARTS, 16 h
Description: For transient transfections jetPEI™ (Polyplus Transfection) and Transfectol (GeneChoice) reagents were used according to the manufacturers' instructions.
To determine whether ARTS promotes apoptosis by regulating the levels of Bcl-2, the inventors first over-expressed ARTS in COS-7 cells. More specifically, COS-7 cell were transiently transfected with ARTS, Bcl-2 or empty vector or co-transfected with both constructs.

[3] = test system: Bcl-2; experiment: Myc beads pull-down of ARTS and Bcl-2 in co-transfected COS-7 cells; format: binding; conditions: COS-7 cells co-transfected with Bcl-2 and ARTS
Procedure: COS-7 cells were co-transfected with different constructs as detailed herein. The cells were lysed in RIPA buffer (150 mM NaCl, 50 mM Tris-HCl (pH 8), 1% NP-40, 0.5% deoxycholate acid containing protease inhibitors (mini Complete, Roche)). The samples were left rotating overnight at 4° C. with the anti-Myc-beads (Santa Cruz). Samples were centrifuged at 4000 rpm, 4° C. for 5 min and washed four times in PBS. Proteins were eluted from beads following 5 min of boiling in sample buffer. Proteins were separate on 12.5% SDS-PAGE gel, followed by Western blot analysis.
The mechanism by which ARTS regulates Bcl-2 levels was further tested using a pull-down assay in COS-7 cells which were co-transfected with Bcl-2 and ARTS expression vectors. Pull-down assays were performed using agarose anti-myc beads followed by Western blot analysis using mouse anti-ARTS and anti-Bcl-2 antibodies.

[4] = test system: acute lymphocytic leukemia; conditions: panel of pediatric tumors; cited from earlier work
[5] = test system: HeLa cells; experiment: Induction of apoptosis by ABT-263 (C-PARP, C-Casp3 Western blot); format: cell-based, human
Procedure: (§1) ABT-263 is a Bcl-2 antagonist targeting the BH3 domain and leading to initiation of apoptosis within two hours after treatment. The effect of ABT-263 was studied in HeLa cells and HeLa cells in which ARTS expression was knocked-down using shRNA method (HeLa KD ARTS). HeLa and HeLa KD ARTS cells were treated with different concentrations of ABT-263 at different incubation time points (0, 16 and 24 Hours). Lysates were separated using SDS-PAGE method. To evaluate apoptosis, Western Blot analysis was performed using antibodies recognizing Cleaved-PARP (C-PARP), Cleaved-casp3 (C-Casp3), Bcl-2, ARTS, XIAP and Actin (FIG. 8A).

[6] = test system: Bcl-2; conditions: cited from earlier work
[7] = target: T1, Bcl-W (Homo sapiens, UniProt Q92843); conditions: cited from earlier work
T1 sequence (Q92843 1-193): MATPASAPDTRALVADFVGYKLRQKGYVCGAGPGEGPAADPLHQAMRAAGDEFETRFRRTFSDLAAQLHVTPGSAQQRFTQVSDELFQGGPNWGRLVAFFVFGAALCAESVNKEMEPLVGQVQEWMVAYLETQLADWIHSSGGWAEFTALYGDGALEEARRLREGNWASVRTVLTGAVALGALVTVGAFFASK

[8] = target: Bcl-XL (Homo sapiens, UniProt Q07817); conditions: cited from earlier work
Chain of Bcl-XL (Q07817 whole entry): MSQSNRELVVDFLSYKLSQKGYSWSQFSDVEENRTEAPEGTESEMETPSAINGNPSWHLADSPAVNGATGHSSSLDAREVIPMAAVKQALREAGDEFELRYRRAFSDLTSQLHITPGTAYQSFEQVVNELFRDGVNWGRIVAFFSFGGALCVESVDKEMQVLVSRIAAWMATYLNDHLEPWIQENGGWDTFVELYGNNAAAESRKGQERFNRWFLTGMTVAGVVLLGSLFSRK

[9] = test system: small cell lung cancer xenographs, acute lymphoblastic leukemia and hematologic tumors; conditions: cited from earlier work
[10] = test system: solid tumors; conditions: panel of pediatric tumors; cited from earlier work
[11] = test system: Bcl-2; experiment: IP with anti ARTS Ab after ABT-263 treatment with or without QVD: binding of ARTS to Bcl-2; format: cell-based, human; conditions: in the presence of QVD
Procedure: Co immunoprecipitation was performed as previously described (Gottfried et al., 2004). Briefly, 10 μg of anti-ARTS antibody or 2 μg of anti-Bcl-2 or anti-XIAP antibody were added to the protein lysate and the samples were left rotating overnight at 4° C. On the following day, agarose beads conjugated to protein A/G (Santa Cruz) were added for 4 h. Samples were centrifuged at 4000 rpm, 4° C. for 5 min and washed three times with PBS. Proteins were eluted from beads following 5 min of boiling in sample buffer and separated on 12.5% SDS-PAGE gel, followed by Western blot analysis.
ABT is a known BH3 mimetics antagonist of Bcl-2 that binds the hydrophobic binding groove in Bcl-2 that includes the BH3 domain. […] Addition of QVD was done to examine whether the binding of ARTS to Bcl-2 occurs before initiation of caspase activation. An IP assay using monoclonal mouse anti ARTS Ab followed by Western Blot was performed by using Bcl-2, ARTS and Actin antibodies.

[12] = test system: HeLa KD ARTS cells; experiment: Induction of apoptosis by ABT-263 in ARTS knocked-down cells; format: cell-based, human; conditions: ARTS KD HeLa cells (absence of ARTS)
Procedure: as §1

[13] = test system: tumor types with an over expression of Mcl-1; conditions: cited from earlier work
[14] = test system: Bcl-2; experiment: Proteasome inhibition in transfected COS-7 cells, Bcl-2 levels; format: cell-based; conditions: COS-7 cells transfected with Bcl-2 or Bcl-2 and ARTS, 6 h
Procedure: For the proteasome inhibition studies the cells were incubated with MG132 (20 μM) for 6 hours.
COS-7 cells transiently transfected with Bcl-2 or co-transfected with Bcl-2 and ARTS constructs were incubated with a potent proteasome inhibitor MG132 for 6 h to evaluate the effect of the ubiquitin-proteasome system (UPS) on Bcl-2 degradation.

[15] = test system: Bcl-2; experiment: Functional-structural pull-down assay with anti Bcl2 antibody in transfected HeLa cells; format: binding, human; conditions: pull-down with Bcl-2 antibodies
Procedure: HeLa cells were transiently transfected with Full length ARTS plasmid and 128 amino acids N′ terminus deletion of ARTS plasmid, for 24 hrs. The cells were extracted using RIPA-SDS lysis buffer. Immunoprecipitation was done by incubation of lysates overnight with anti Bcl2 antibody (BD), followed by precipitation done with protein A/G beads (Santa Cruz). Western blot analysis was performed using monoclonal anti ARTS antibody directed against its unique C terminus (Sigma).
In order to identify the Bcl-2 binding domain in ARTS, the inventors examined whether deletion of different fragments of ARTS, namely, the N-terminal 128 amino-acid residues may have an effect. Therefore, pull-down experiments were performed in HeLa cells transfected with either the full length ARTS or a deletion mutant thereof.

COc1cc([C@@H]2c3cc4c(cc3[C@@H](O[C@@H]3O[C@@H]5CO[C@@H](C)O[C@H]5[C@H](O)[C@H]3O)[C@H]3COC(=O)[C@H]23)OCO4)cc(OC)c1O [Etoposide]
Bcl-2 levels upon induction of apoptosis [1]: down regulated | Bcl-2 level on treatment [2]: further reduction of Bcl-2 level | fate of ARTS/Bcl-2 complex upon induction of apoptosis [3]: degraded

CC1(C)CCC(c2ccc(Cl)cc2)=C(CN2CCN(c3ccc(C(=O)NS(=O)(=O)c4ccc(N[C@H](CCN5CCOCC5)CSc5ccccc5)c(S(=O)(=O)C(F)(F)F)c4)cc3)CC2)C1 [ABT-263, 4-[4-[[2-(4-Chlorophenyl)-5,5-dimethyl-1-cyclohexen-1-yl]methyl]-1-piperazinyl]-N-[[4-[[(1R)-3-(4-morpholinyl)-1-[(phenylthio)methyl]propyl]amino]-3-[(trifluoromethyl)sulfonyl]phenyl]sulfonyl]benzamide]
efficacy against acute lymphocytic leukemia [4]: highly significant | apoptosis (level of C-PARP and C-Casp3) with increased concentrations [5]: increased apoptosis | apoptosis ([5]; 25 μM for 24H): induction of apoptosis | concentration giving optimal induction of apoptosis ([5]; 24 h): 25 µM | binding to Bcl-2 [6]: high affinity | binding to Bcl-W [7]: high affinity | binding to Bcl-XL [8]: high affinity | efficacy against tumors [9]: effective | efficacy as a single agent against solid tumors [10]: not effective | binding of ARTS to Bcl-2 after treatment ([11]; 25 μM, 3 and 24 hours): significant increase in binding of ARTS to Bcl-2 | inhibition of the binding of ARTS to Bcl-2 [11]: fails to inhibit | apoptosis (C-PARP and C-Casp3 levels) [12]: not able to induce apoptosis | apoptosis (C-PARP and C-Casp3 levels) ([12]; listed as ABT): lower apoptosis rates

CN(C)CC[C@H](CSc1ccccc1)Nc1ccc(S(=O)(=O)NC(=O)c2ccc(N3CCN(Cc4ccccc4-c4ccc(Cl)cc4)CC3)cc2)cc1[N+](=O)[O-] [ABT-737, (R)-4-(4-((4′-chloro-[1,1′-biphenyl]-2-yl)methyl)piperazin-1-yl)-N-((4-((4-(dimethylamino)-1-(phenylthio)butan-2-yl)amino)-3-nitrophenyl)sulfonyl)benzamide]
binding to Bcl-2 [6]: high affinity | effect in tumor types with an over expression of Mcl-1 [13]: no effect | binding to Bcl-W [7]: high affinity | binding to Bcl-XL [8]: high affinity

CC(C)C[C@@H](C=O)NC(=O)[C@H](CC(C)C)NC(=O)[C@H](CC(C)C)NC(=O)OCc1ccccc1 [MG132] (Cbz-Leu-Leu-Leu-aldehyde)
Bcl-2 levels during proteasome inactivation [14]: accumulation of Bcl-2 levels

B1: 128aa N′del ARTS: deletion mutant of ARTS lacking the N′ terminal 128 amino acid residues (protein)
chain: MVAGESGLGKSTLVNSLFLTDLYRDRKLLGAEERIMQTVEITKHAVDIEEKGVRLRLTIVDTPGFGDAVNNTECWKPVAEYIDQQFEQYFRDESGLNRKNIQDNRVHCCLYFISPFGHGYGPSLRLLAPPGAVKGTGQEHQGQGCH
binding to Bcl-2 [15]: does not bind to Bcl-2
